The values that follow are results of earlier work, collected in patent US20240156829A1, “Stable Antiemetic Emulsions for Parenteral Administration” (Slayback Pharma LLC, priority 2022, published 2024).

By half-life is commonly meant the time in which the quantity being followed falls by half.

The structures appear in SMILES notation. Counter-ions that a name gives are not always drawn.

The conditions of series [1]: by light or oxygen or heavy metals.
For series [2] the following is noted: in vivo.

Turning to `C[C@@H](O[C@H]1OCCN(Cc2n[nH]c(=O)[nH]2)[C@H]1c1ccc(F)cc1)c1cc(C(F)(F)F)cc(C(F)(F)F)c1` [Aprepitant, 5-([(2R, 3S)-2-((R)-1-[3,5-bis (trifluoromethyl)phenyl]ethoxy)-3-(4-fluoro-phenyl)morpholino]methyl)-1H-1,2,4-triazol-3(2H)-one], the solubility result is reported as “very poor”.
As to `O=C1c2cccc3c2[C@H](CCC3)CN1[C@@H]1CN2CCC1CC2` [Palonosetron hydrochloride, (3aS)-2-[(3S)-1-azabicyclo [2.2.2]octan-3-yl]-3a,4,5,6-tetrahydro-3H-benzo[de] isoquinolin-1-one; hydrochloride], in series [1], the “Stability in a liquid medium” value was “easily oxidized and degraded”. Further, in series [2], the half-life is 40 h.
